The record followed here is patent US20240041854A1, “COLD MEDICINE AND ANTIVIRAL MEDICINE” (OTSUKA PHARMACEUTICAL FACTORY, INC., priority 2020, published 2024).

Where two headings read alike, the source gives them in different places.

Type in all cases: cell-based
In assay [1] the test system is human coronavirus HCoV-229E. Set-up: unit not given here. The conditions noted are these: MRC-5 cells, qPCR. On the technique in general: Quantitative PCR measures a nucleic acid by following its amplification.
Assay [2] relates to human coronavirus OC43 (ATCC VR1588). The experiment in a line: Pharmacological Test 2: OC43 infection of HCT-8 host cells, virus RNA quantified by RT-qPCR. Set-up: unit not given here. Conditions: HCT-8 cells. An excerpt:
Compound X described above was used as the test compound. […] Comparative Compound 2 used herein was chloroquine phosphate, which has temporarily been approved by the US Food and Drug Administration (FDA) for emergency use in patients with new coronavirus infection.

The test system of assay [3] is SARS-CoV-2 (hCoV-19/Germany/BY-ChVir-929/2020). The experiment in a line: Pharmacological Test 3: SARS-CoV-2 infection of Vero E6 host cells, virus amount in culture supernatant by qPCR (Ct value). The conditions noted are these: for Ct value (average value): Vero E6 cells, SARS-CoV-2, culture supernatant. The protocol:
Compound X described above was used as the test compound. Vero E6 (ATCC CRL1586) was used as a host cell, and this was cultured on a 96-well plate until a monolayer sheet was obtained. Next, the medium was removed, 50 μL of a mixed suspension medium of SARS-CoV-2 (hCoV-19/Germany/BY-ChVir-929/2020) and a predetermined dose of the test compound was added, and the resultant was allowed to stand at 37° C. for 1 hour. The virus concentration was 150 PFU/well. Subsequently, the medium was removed, and the cells were washed with PBS. Then, a new medium mixed with the same dose of the test compound as before was added, and the cells were cultured at 37° C. overnight. After culturing, the virus amount in the culture supernatant was quantified by qPCR. As the primers and probe, the new coronavirus N1 protein-specific primers and probe specified by the Centers for Disease Control and Prevention (CDC) were used, and the conditions were also in accordance with the conditions specified by the CDC. The number of PCR cycles (Ct value) until the signal intensity of the PCR product reached a predetermined intensity (threshold value) was determined.

On to `NC(=O)c1nccnc1O` [Comparative compound, 3-Hydroxypyrazine-2-carboxamide, reference compound], for which the Virus amount in assay [1] (1.6 μM test substance) came to 1.E+07; in assay [1] (3.1 μM test substance), 7.E+06; in assay [1] (6.3 μM test substance), 9.E+06; in assay [1] (12.5 μM test substance), 5.E+06; in assay [1] (25 μM test substance), 2.E+07; in assay [1] (50 μM test substance), 2.E+07. The Virus amount in assay [1] (100 μM test substance) was 2.E+07.

On to `COc1cc(OCc2ncc(C(F)(F)F)cc2F)ccc1-c1nc(-c2ccc(F)nc2)[nH]c1Cl` [Compound X, 2-[[4-(5-chloro-2-(6-fluoropyridin-3-yl)-1H-imidazol-4-yl)-3-methoxyphenoxy]methyl]-3-fluoro-5-(trifluoromethyl) pyridine], for which the Virus amount in assay [1] (0.78 μM test substance) is 9.E+06; in assay [1] (1.58 μM test substance), 1.E+07; in assay [1] (3.1 μM test substance), 5.E+06; in assay [1] (6.3 μM test substance), 5.E+06; in assay [1] (12.5 μM test substance) it was 1.E+06; in assay [1] (25 μM test substance), 4.E+02. Also, the Virus amount is on record as 3.E+03 in assay [1] (50 μM test substance); 3.E+08 in assay [2] (0.78 μM test compound); 5.E+08 in assay [2] (1.6 μM test compound); 6.E+08 in assay [2] (3.1 μM test compound); 1.E+08 in assay [2] (6.2 μM test compound); 2.E+05 in assay [2] (12.5 μM test compound). In addition, the Virus amount in assay [2] (25 μM test compound) and in assay [2] (50 μM test compound) was 1.E+05 each time. For the same compound, the “Ct value (average value)” value is 21.0 in assay [3] (0.78 μM test compound); 21.1 in assay [3] (1.56 μM test compound); 20.9 in assay [3] (3.13 μM test compound); 21.7 in assay [3] (6.25 μM test compound); 24.7 in assay [3] (12.50 μM test compound); 24.8 in assay [3] (25.00 μM test compound). Further, the “Ct value (average value)” value in assay [3] (50.00 μM test compound) turned out to be 24.5. Besides, in assay [3] (in words, Vero E6), the “infection-suppressing effect on SARS-CoV-2” value is on record as “showed an infection-suppressing effect on SARS-CoV-2”.

With `COc1cc(OCc2ncc(C(F)(F)F)cc2F)ccc1-c1nc(-c2ccc(F)nc2)[nH]c1Br` [Compound Y, 2-[[4-(5-bromo-2-(6-fluoropyridin-3-yl)-1H-imidazol-4-yl)-3-methoxyphenoxy]methyl]-3-fluoro-5-(trifluoromethyl)pyridine], the Virus amount in assay [1] (0.78 μM test substance) came to 2.E+08; in assay [1] (1.6 μM test substance) it was 1.E+08; in assay [1] (3.1 μM test substance), 1.E+08; in assay [1] (6.2 μM test substance), 1.E+08; in assay [1] (12.5 μM test substance), 8.E+07; in assay [1] (25 μM test substance) it was 4.E+04. Besides, the Virus amount in assay [1] (50 μM test substance) came to 3.E+04.

As to `Fc1ccc(-c2nc(-c3ccc(OCc4ncc(C(F)(F)F)cc4F)cc3Cl)c(Cl)[nH]2)cn1` [Compound Z, 2-[[3-chloro-4-(5-chloro-2-(6-fluoropyridin-3-yl)-1H-imidazol-4-yl)phenoxy]methyl]-3-fluoro-5-(trifluoromethyl)pyridine], the Virus amount is given as 3.E+08 in assay [1] (0.78 μM test substance); 1.E+08 in assay [1] (1.58 μM test substance); 3.E+08 in assay [1] (3.1 μM test substance); 3.E+08 in assay [1] (6.3 μM test substance); 8.E+07 in assay [1] (12.5 μM test substance); 2.E+05 in assay [1] (25 μM test substance). In addition, the Virus amount in assay [1] (50 μM test substance) turned out to be 4.E+04.

`NC(=O)c1nc(F)c[nH]c1=O` [compound 1, favipiravir]: the Virus amount in assay [2] (0.78 μM test compound) worked out at 4.E+08; in assay [2] (1.58 μM test compound), 3.E+08; in assay [2] (3.1 μM test compound), 3.E+08; in assay [2] (6.3 μM test compound), 3.E+08; in assay [2] (12.5 μM test compound) it was 2.E+08; in assay [2] (25 μM test compound) it was 2.E+08. Also, the Virus amount in assay [2] (50 μM test compound) is 6.E+08.

Turning to `CCN(CC)CCCC(C)Nc1ccnc2cc(Cl)ccc12` (stereo not drawn) [compound 2, chloroquine phosphate], the Virus amount in assay [2] (0.78 μM test compound) was 2.E+08; in assay [2] (1.58 μM test compound), 3.E+08; in assay [2] (3.1 μM test compound), 4.E+08; in assay [2] (6.3 μM test compound), 6.E+08; in assay [2] (12.5 μM test compound), 6.E+07; in assay [2] (25 μM test compound) it was 3.E+06. For the same compound, in assay [2] (50 μM test compound), the Virus amount came out at 9.E+06.
